Results reported in paper PMC9305425 (Chemmedchem, 2022).
Values joined by “and” are separate entries in the source; they are usually repeats but may differ in a detail not shown here. Identical values can stand only once. Like-named read-outs stand apart in the source and are kept apart here.

Columns and labels:
[1] = target: EcDsbA; settings: cited from earlier work
[2] = test system: VcDsbA; settings: cited from earlier work
[3] = target: T1, oxidized EcDsbA (Escherichia coli, UniProt P0AEG4); assay: biochemical
T1 sequence (P0AEG4 20-208): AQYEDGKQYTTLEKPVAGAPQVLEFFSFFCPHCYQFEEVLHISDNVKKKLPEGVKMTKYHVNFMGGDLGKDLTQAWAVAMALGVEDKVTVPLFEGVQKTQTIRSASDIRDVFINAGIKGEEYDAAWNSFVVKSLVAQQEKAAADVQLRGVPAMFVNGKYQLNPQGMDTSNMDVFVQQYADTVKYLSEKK
Procedure: ITC was performed using a MicroCal iTC200 instrument (GE Healthcare). […] Titrations were conducted at 25 °C using 15 consecutive injections of 2.5 μL with 180 s intervals and a stirring speed of 700 rpm. […] Every interaction was tested in triplicate and the values given represent mean and standard error of mean (SEM) from these triplicate analyses.
Isothermal Titration Calorimetry (ITC).
EcDsbA (A)/VcDsbA (B). Each experiment was conducted in triplicate; a single replicate
representative of the acquired ITC data is shown.
(1 picture or pasted object on this page, not shown here)

[4] = target: VcDsbA; settings: cited from earlier work; remark: listed apart in the source
[5] = 2D [1H,1H]-NOESY; for solubility / aggregation in aqueous buffer: 298 K
Procedure: Solubility test of benzimidazole 2 in aqueous buffer. 2D [1H,1H]-NOESY of
benzimidazole 2 at 4 mM in D2O NMR buffer (50 mM NaPi, 25 mM NaCl, pH 6.5; 2% D6-

[6] = target: T1, oxidized EcDsbA; assay: biochemical; type: binding; set-up: made in house; host or cells: E. coli BL21(DE3)
[7] = target: T2, oxidized VcDsbA (Vibrio cholerae serotype O1, UniProt P32557); assay: biochemical; type: binding; settings: for Kd: 1H-15N HSQC titration, one-site binding model, 100 μM 15N-labeled oxidized VcDsbA, 298 K, read-out: equilibrium dissociation constant (KD); for extent of chemical shift perturbations (CSP) in 1H-15N HSQC of VcDsbA: single-point addition of compound (1 mM) to VcDsbA (100 μM), compared with other hits / analogues
T2 construct: made in house; host or cells: E. coli BL21(DE3)
T2 sequence (P32557 20-200): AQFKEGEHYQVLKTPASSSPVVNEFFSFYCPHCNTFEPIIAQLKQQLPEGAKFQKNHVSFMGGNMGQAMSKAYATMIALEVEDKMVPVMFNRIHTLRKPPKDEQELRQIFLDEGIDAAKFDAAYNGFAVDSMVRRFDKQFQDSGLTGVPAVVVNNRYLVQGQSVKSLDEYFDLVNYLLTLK

[8] = target: T3, unlabelled oxidized VcDsbA (Vibrio cholerae serotype O1, UniProt P32557); assay: Ligand-detected 1D 19F NMR affinity estimation; type: binding; settings: change in 19F chemical shift at two protein:ligand ratios, VcDsbA 10 μM
T3 construct: made in house; host or cells: E. coli BL21(DE3)
T3 sequence (P32557 20-200): as above
Text: Residues with a CSP >0.05 ppm at the highest ligand concentration tested were mapped onto the VcDsbA structure (Figure 2C, D). The residues showing the largest CSP were localized within the hydrophobic groove, adjacent to the active site (Figure 2D). […] The K D for the VcDsbA‐benzimidazole 2 interaction was also estimated using ligand‐detected 1D ^19F‐NMR (Figure 2F). The ^19F chemical shift of the CF3 group in benzimidazole 2 has a chemical shift of −60.38 ppm in the absence of protein and was perturbed upon in a concentration‐dependent fashion upon addition of VcDsbA. The change in the chemical shift of the ^19F signal at two different protein : ligand ratios was used to estimate the K D of the interaction.[20]
Affinity estimation from ligand‐detected ^19F NMR. The change in the resonance frequency of the single ^19F signal in the 1D ^19F NMR spectrum of benzimidazole 2 was used to estimate the binding affinity using equation 2.[43] (2) KD=γL1-L2/1-γ
where γ is described as ΔδF1/ΔδF2 and ΔδF1 and ΔδF2 denote the changes in chemical shift of the fluorine signal of benzimidazole 2 in the absence of VcDsbA and in presence of VcDsbA (10.0 μM) at ligand concentrations of [L]1 and [L]2, respectively.

Row | Structure (SMILES) | Kd [1] [µM] | VcDsbA substrate oxidation in vivo [2] | redox state of VcDsbA [2] | N (stoichiometry) [3] | ΔH [3] [kcal/mol] | ΔS [3] [cal/mol/deg] | Kd ([3]; KD) [µM] | Kd ([3]; association constant K) [µM] | Kd [4] [µM] | solubility / aggregation in aqueous buffer ([5]; [TC]set = 4 mM in D2O NMR buffer) | effect on the oxidation state of DsbA [6] | Kd ([6]; KD) | Kd [7] [µM] | extent of chemical shift perturbations (CSP) in 1H-15N HSQC of VcDsbA [7] | selectivity for VcDsbA over EcDsbA ([7]; ratio of HSQC-derived KD values, VcDsbA over EcDsbA) [fold] | Kd [8] [µM] | solubility / aggregation in aqueous buffer ([5]; 4 mM in D2O NMR buffer (50 mM NaPi, 25 mM NaCl, pH 6.5; 2% D6-DMSO; 98% D2O)) | solubility / aggregation in aqueous NMR buffer ([5]; mixing time 800 ms, concentration of 2.5 mM) | Kd [6] [µM]
1 | C[C@H](CCC(=O)NCCS(=O)(=O)O)[C@H]1CC[C@H]2[C@@H]3[C@H](O)C[C@@H]4C[C@H](O)CC[C@]4(C)[C@H]3C[C@H](O)[C@]12C [TC, sodium taurocholate] | 146 ± 7 | inhibit VcDsbA substrate oxidation in vivo | able to affect the redox state of VcDsbA | 1 | -6.551 ± 0.273 | -6.11 | 428 ± 44 | 340 | 40 ± 2.5 | no aggregation | no effect on the oxidation state | 224 µM and ~224 µM | – | – | – | – | – | – | –
2 | OCCCc1nc2ccc(C(F)(F)F)cc2[nH]1 [benzimidazole 1] | – | – | – | – | – | – | – | – | – | – | – | – | 610 ± 150 | largest chemical shift perturbations | – | – | – | – | –
3 | OCCCc1nc2c(Cl)cc(C(F)(F)F)cc2[nH]1 [benzimidazole 2] | – | – | – | – | – | – | – | – | – | – | – | – | 446 ± 10 | largest CSP | ~8 | 480 | no aggregation | soluble and free from aggregation | > 3500
